Patent publication US4176116A, “Dipeptide derivatives” (Hoffmann-La Roche Inc., priority 1976, dated 1979)
Peptide text beside a SMILES is read from it. * marks the point of attachment. Tos = Cc1ccc(S(=O)(=O)*)cc1; Isobutyryl = CC(C)C(=O)*; Pentanoyl = CCCCC(=O)*; PhAc = O=C(Cc1ccccc1)*; Piv = CC(C)(C)C(=O)*; Bz = O=C(c1ccccc1)*

These molecules were tested against T1, human granulocyte elastase (Homo sapiens, UniProt P08246) (assay: in vitro elastase inhibition, test method of Visser and Blout). Conditions: human granulocyte elastase as the enzyme; read-out: I50 (concentration which gives 50% inhibition of the human granulocyte elastase).
T1 sequence (P08246 30-267): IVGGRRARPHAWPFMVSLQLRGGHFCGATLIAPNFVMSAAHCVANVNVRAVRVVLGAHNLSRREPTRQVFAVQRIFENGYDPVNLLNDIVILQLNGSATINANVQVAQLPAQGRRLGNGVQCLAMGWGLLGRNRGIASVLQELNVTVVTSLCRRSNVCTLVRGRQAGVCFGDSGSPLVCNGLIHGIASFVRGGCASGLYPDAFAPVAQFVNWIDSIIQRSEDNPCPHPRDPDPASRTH
Assay type: biochemical
From the text: Acta 268 (1972) 257, using porcine pancreatic elastase as the enzyme. The results obtained with representative dipeptide derivatives in this test are given in Table I hereinafter, the Ki being the inhibitor constant in millimoles per liter:
The result obtained with a representative dipeptide derivative in this test is given in Table II hereinafter, the I50 being the concentration in millimoles per liter which gives 50% inhibition of the human granulocyte elastase: […]

CCNC(=O)[C@@H]1CCCN1C(=O)[C@H](C)NS(=O)(=O)c1ccc(C)cc1 [N-(p-Toluenesulphonyl)-L-alanyl-L-proline ethylamide] (Tos-Ala-Pro-NHEt) gave an IC50 of 900 µM.

What follows are molecules tested against porcine pancreatic elastase (Sus scrofa, UniProt P00772) in the same assay as above. Conditions: porcine pancreatic elastase as the enzyme; read-out: Ki (inhibitor constant).
Assay type: biochemical
From the text: Acta 268 (1972) 257, using porcine pancreatic elastase as the enzyme. The results obtained with representative dipeptide derivatives in this test are given in Table I hereinafter, the Ki being the inhibitor constant in millimoles per liter: […]

Sequence of porcine pancreatic elastase (P00772 27-266): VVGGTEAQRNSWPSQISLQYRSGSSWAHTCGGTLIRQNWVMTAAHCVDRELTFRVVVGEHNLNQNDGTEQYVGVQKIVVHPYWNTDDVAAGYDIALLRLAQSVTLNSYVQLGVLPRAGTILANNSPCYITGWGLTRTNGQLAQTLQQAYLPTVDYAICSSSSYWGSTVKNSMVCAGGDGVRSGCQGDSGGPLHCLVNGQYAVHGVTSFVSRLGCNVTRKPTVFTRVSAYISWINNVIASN

CCCCC(=O)N[C@@H](C)C(=O)N1CCC[C@H]1C(=O)NCC [N-(n-Valeryl)-L-alanyl-L-proline ethylamide] (Pentanoyl-Ala-Pro-NHEt) and CCNC(=O)[C@@H]1CCCN1C(=O)[C@H](C)NC(=O)C(C)C [N-Isobutanoyl-L-alanyl-L-proline ethylamide] (Isobutyryl-Ala-Pro-NHEt) are within 1.5-fold of each other in Ki: 80 µM for the first, 60 µM for the second.

First: CCNC(=O)[C@H](C)NC(=O)[C@H](C)NC(=O)c1ccccc1 [N-Benzoyl-L-alanyl-L-alanine ethylamide] (Bz-Ala-Ala-NHEt)
Second: CCNC(=O)[C@@H]1CCCN1C(=O)[C@H](C)NC(=O)c1ccccc1 [N-Benzoyl-L-alanyl-L-proline ethylamide] (Bz-Ala-Pro-NHEt)
The Ki of the first is 4.6-fold higher: 120 µM for the first, 26 µM for the second.

Compared with CCNC(=O)[C@@H]1CCCN1C(=O)[C@H](C)NC(=O)C1CCCCC1 [N-Cyclohexylcarbonyl-L-alanyl-L-proline ethylamide], CCNC(=O)[C@@H]1CCCN1C(=O)[C@H](C)NC(=O)C(C)(C)C [N-Pivaloyl-L-alanyl-L-proline ethylamide] (Piv-Ala-Pro-NHEt) is 9-fold higher in Ki: 10 µM for the first, 90 µM for the second.

Work on CCNC(=O)[C@@H]1CCCN1C(=O)[C@H](C)NC(=O)Cc1ccccc1 [N-Phenacetyl-L-alanyl-L-proline ethylamide] (PhAc-Ala-Pro-NHEt) yielded a Ki of 86 µM.
